{"source": "patent US7381729B2", "about": "“4-(4-trans-hydroxycyclohexyl)amino-2-phenyl-7H-pyrrolo [2,3D] pyrimidine hydrogen mesylate, its polymorphic forms, and methods for making same” (Solvay Pharmaceuticals B.V., priority 2003, dated 2008)", "key": {"[1]": {"assay": "Relative stability of the polymorphic forms", "assay_type": "physicochemical", "settings": "form α versus form β"}, "[2]": {"assay": "Solubility by shake flask method (OECD guideline No. 105) in purified water", "settings": "25° C.", "description": "Solubility measurements were carried out with the shake flask method according to the OECD guideline at 25° C."}, "[3]": {"assay": "Solubility in gastrointestinal fluids", "assay_type": "physicochemical"}, "[4]": {"assay": "Stability at ambient conditions", "assay_type": "physicochemical"}}, "data": [{"compound": "CS(=O)(=O)O.OC1CCC(Nc2nc(-c3ccccc3)nc3[nH]ccc23)CC1", "note": "(stereo not drawn) [Polymorph α, 4-(4-trans-hydroxy-cyclohexyl)amino-2-phenyl-7H-pyrrolo[2,3d]pyrimidine mesylate]", "values": [{"measurement": "polymorphic stability (in words)", "setting": "[1]", "result": "metastable with respect to form β"}]}, {"compound": "O[C@H]1CC[C@H](Nc2nc(-c3ccccc3)nc3[nH]ccc23)CC1", "note": "[Base, 4-(4-trans-hydroxy-cyclohexyl)amino-2-phenyl-7H-pyrrolo[2,3d]pyrimidine]", "values": [{"measurement": "Solubility", "setting": "[2]", "result": 5.9, "unit": "ng/mL"}, {"measurement": "solubility in gastrointestinal fluids (in words)", "setting": "[3]", "result": "low solubility"}]}, {"compound": "CS(=O)(=O)O.OC1CCC(Nc2nc(-c3ccccc3)nc3[nH]ccc23)CC1", "note": "(stereo not drawn) [Polymorph β, 4-(4-trans-hydroxy-cyclohexyl)amino-2-phenyl-7H-pyrrolo[2,3d]pyrimidine mesylate]", "values": [{"measurement": "polymorphic stability (in words)", "setting": "[1]", "result": "stable form"}]}, {"compound": "CS(=O)(=O)O.OC1CCC(Nc2nc(-c3ccccc3)nc3[nH]ccc23)CC1", "note": "(stereo not drawn) [mesylate salt, 4-(4-trans-hydroxy-cyclohexyl)amino-2-phenyl-7H-pyrrolo[2,3d]-pyrimidine mesylate]", "values": [{"measurement": "stability at ambient conditions (in words)", "setting": "[4]", "result": "very stable"}]}]}
